Where a SMILES comes first, the peptide text is derived from it. Bridges are numbered along the chain shown (N, C = ends).
Assays:
Rattus norvegicus [1] = organism: Rattus norvegicus; assay: Tested for anti-oxytocic activity against isolated rat uterus; type: functional; details: read-out: pA2 (converted)
Rattus norvegicus [2] = organism: Rattus norvegicus; assay: Compound was tested for antidiuretic activity in rats; type: ADME, organism-based, Urine; details: in vivo
Rattus norvegicus [3] = organism: Rattus norvegicus; assay: Compound was tested for anti-vasopressor activity against rat; Inhibitor; type: functional, organism-based
Rattus norvegicus [4] = organism: Rattus norvegicus; assay: Tested for antidiuretic activity against rats; type: functional, Urine
Rattus norvegicus [5] = organism: Rattus norvegicus; assay: The anti-oxytocic pA2 value (antagonistic) of compound was tested on isolated rat uterus (with the 0.5 mM Mg+2); type: functional; details: read-out: pA2 (converted)
Rattus norvegicus [6] = organism: Rattus norvegicus; assay: Compound was tested for anti-vasopressor activity against rat; type: functional, organism-based; details: read-out: pA2 (converted)
Rattus norvegicus [7] = organism: Rattus norvegicus; assay: Tested for anti-oxytocic activity against isolated rat uterus; Showed both agonistic and antagonistic activities; type: functional
Rattus norvegicus [8] = organism: Rattus norvegicus; assay: Compound was tested for anti-vasopressor activity against rat; Weak; type: functional, organism-based
Rattus norvegicus [9] = organism: Rattus norvegicus; assay: The vasopressor value (agonistic) of compound was tested on rat […]; type: functional

CC[C@H](C)[C@@H]1NC(=O)[C@H](Cc2ccc(OC)cc2)NC(=O)[C@@H](NC(=O)CNC)CSSC[C@@H](C(=O)N2CCC[C@H]2C(=O)N[C@@H](CC(C)C)C(=O)NCC(N)=O)NC(=O)[C@H](CC(N)=O)NC(=O)[C@H](CCC(N)=O)NC1=O
Kb (Rattus norvegicus [1]): 302 nM

CC[C@H](C)[C@@H]1NC(=O)[C@H](Cc2ccc(OC)cc2)NC(=O)[C@@H](NC(N)=O)CSSC[C@@H](C(=O)N2CCC[C@H]2C(=O)N[C@@H](CC(C)C)C(=O)NCC(N)=O)NC(=O)[C@H](CC(N)=O)NC(=O)[C@H](CCC(N)=O)NC1=O
Kb (Rattus norvegicus [1]): 60.3 nM

NC(=O)CC[C@@H]1NC(=O)[C@H](Cc2ccccc2)NC(=O)[C@H](Cc2ccc(O)cc2)NC(=O)[C@@H](N)CSSC[C@@H](C(=O)N2CCC[C@H]2C(=O)N[C@@H](CCCN=C(N)N)C(=O)NCC(N)=O)NC(=O)[C@H](CC(N)=O)NC1=O (stereo in doubt; form 2) [VASOPRESSIN]
Antidiuretic (Rattus norvegicus [2]): 212 U/mg

CC[C@H](C)[C@@H]1NC(=O)[C@H](Cc2ccc(O)cc2)NC(=O)[C@@H](N)CSSC[C@@H](C(=O)N2CCC[C@H]2C(=O)N[C@@H](CC(C)C)C(=O)NCC(N)=O)NC(=O)[C@H](CC(N)=O)NC(=O)[C@H](CCC(N)=O)NC1=O [OXYTOCIN]
Antidiuretic (Rattus norvegicus [2]): 4 U/mg

CC[C@H](C)[C@@H]1NC(=O)[C@@H](Cc2ccc(OC)cc2)NC(=O)[C@H](NC(C)=O)CSSC[C@@H](C(=O)N2CCC[C@@H]2C(=O)N[C@@H](CC(C)C)C(=O)NCC(N)=O)NC(=O)[C@H](CC(N)=O)NC(=O)[C@@H](CCC(N)=O)NC1=O
pA2 (Rattus norvegicus [3]): Inhibition

CC[C@H](C)[C@@H]1NC(=O)[C@H](Cc2ccc(OC)cc2)NC(=O)[C@@H](N)CSSC[C@@H](C(=O)N2CCC[C@H]2C(=O)N[C@@H](CC(C)C)C(=O)NCC(N)=O)NC(=O)[C@H](CC(N)=O)NC(=O)[C@H](CCC(N)=O)NC1=O
Antidiuretic (Rattus norvegicus [4]): 0.01 U/mg

COc1ccc(C[C@@H]2NC(=O)[C@@H](NC(C)=O)CSSC[C@@H](C(=O)N3CCC[C@H]3C(=O)N[C@@H](CCCN=C(N)N)C(=O)NCC(N)=O)NC(=O)[C@H](CC(N)=O)NC(=O)[C@H](CCC(N)=O)NC(=O)[C@H](Cc3ccccc3)NC2=O)cc1 [listing 1 of 2 here]
Kb (Rattus norvegicus [5]): 186 nM | Kb (Rattus norvegicus [6]): 66.1 nM | Kb (Rattus norvegicus [1]): 51.3 nM

CC[C@H](C)[C@@H]1NC(=O)[C@@H](Cc2ccc(OC)cc2)NC(=O)[C@H](N)CSSC[C@@H](C(=O)N2CCC[C@@H]2C(=O)N[C@@H](CC(C)C)C(=O)NCC(N)=O)NC(=O)[C@H](CC(N)=O)NC(=O)[C@@H](CCC(N)=O)NC1=O
pA2 (Rattus norvegicus [7]): Mixed | pA2 (Rattus norvegicus [8]): Weak

CC[C@H](C)[C@@H]1NC(=O)[C@H](Cc2ccc(OC)cc2)NC(=O)[C@@H](NC(C)=O)CSSC[C@@H](C(=O)N2CCC[C@H]2C(=O)N[C@@H](CC(C)C)C(=O)NCC(N)=O)NC(=O)[C@H](CC(N)=O)NC(=O)[C@H](CCC(N)=O)NC1=O
Kb (Rattus norvegicus [1]): 26.3 nM

CC[C@H](C)[C@@H]1NC(=O)[C@H](Cc2ccc(OC)cc2)NC(=O)[C@@H](NC(=O)CN)CSSC[C@@H](C(=O)N2CCC[C@H]2C(=O)N[C@@H](CC(C)C)C(=O)NCC(N)=O)NC(=O)[C@H](CC(N)=O)NC(=O)[C@H](CCC(N)=O)NC1=O (H-GCY(Me)IQNCPLG-NH2; disulfide 2-7)
Kb (Rattus norvegicus [1]): 141 nM

NC(=O)CC[C@@H]1NC(=O)[C@H](Cc2ccccc2)NC(=O)[C@H](Cc2ccc(O)cc2)NC(=O)[C@@H](N)CSSC[C@@H](C(=O)N2CCC[C@H]2C(=O)N[C@@H](CCCN=C(N)N)C(=O)NCC(N)=O)NC(=O)[C@H](CC(N)=O)NC1=O (stereo in doubt; form 1) [VASOPRESSIN]
Antidiuretic (Rattus norvegicus [2]): 323 U/mg

COc1ccc(C[C@@H]2NC(=O)[C@@H](NC(C)=O)CSSC[C@@H](C(=O)N3CCC[C@H]3C(=O)N[C@@H](CCCN=C(N)N)C(=O)NCC(N)=O)NC(=O)[C@H](CC(N)=O)NC(=O)[C@H](CCC(N)=O)NC(=O)[C@H](Cc3ccccc3)NC2=O)cc1 [listing 2 of 2 here]
Antidiuretic (Rattus norvegicus [4]): 0.026 U/mg

COc1ccc(C[C@@H]2NC(=O)[C@@H](N)CSSC[C@@H](C(=O)N3CCC[C@H]3C(=O)N[C@@H](CCCN=C(N)N)C(=O)NCC(N)=O)NC(=O)[C@H](CC(N)=O)NC(=O)[C@H](CCC(N)=O)NC(=O)[C@H](Cc3ccccc3)NC2=O)cc1 [listing 1 of 2 here]
Antidiuretic (Rattus norvegicus [4]): 386 U/mg | Vasopressor activity (Rattus norvegicus [9]): 9.7 units/mg

COc1ccc(C[C@@H]2NC(=O)[C@@H](N)CSSC[C@@H](C(=O)N3CCC[C@H]3C(=O)N[C@@H](CCCN=C(N)N)C(=O)NCC(N)=O)NC(=O)[C@H](CC(N)=O)NC(=O)[C@H](CCC(N)=O)NC(=O)[C@H](Cc3ccccc3)NC2=O)cc1 [listing 2 of 2 here]
Kb (Rattus norvegicus [5]): 457 nM | Kb (Rattus norvegicus [1]): 36.3 nM

CC[C@H](C)[C@@H]1NC(=O)[C@@H](Cc2ccc(OC)cc2)NC(=O)[C@H](NC(N)=O)CSSC[C@@H](C(=O)N2CCC[C@@H]2C(=O)N[C@@H](CC(C)C)C(=O)NCC(N)=O)NC(=O)[C@H](CC(N)=O)NC(=O)[C@@H](CCC(N)=O)NC1=O
pA2 (Rattus norvegicus [3]): Inhibition
